Laboratory results from patent publication US12565497B2 (Hoffmann-La Roche Inc., priority 2020, dated 2026).
Where a name gives a salt, the structure may show the parent alone.

Biological target: Recombinant human Mat2a (Homo sapiens (Human), UniProt P31153)
Assay: Determination of Mat2A activity (384 well absorbance-based assay, Biomol Green)
Format: biochemical
Details: 12.5 nM Mat2A, 100 μM ATP and Methionine, 2% DMSO, 120 minutes at RT, absorbance at 635 nm; read-out: MAT2A_LEC IC50 (uM) (Num)
Procedure: Determination of Mat2A Activity
Measurement of Mat2A inhibition is performed in 384 well format absorbance-based assay. Recombinant human Mat2a (12.5 nM) and serial diluted compounds in DMSO (range of concentrations from 10 μM to 508 pM) or controls (DMSO) are incubated for 15 minutes at room temperature (RT) in assay buffer containing 50 mM HEPES pH 7.5, 50 mM KCl, 50 mM MgCl2, 0.01%Tween 20 and 10 mM DTT. The reaction is initiated by the addition of the combined substrates ATP and Methionine, each at a final concentration of 100 μM. Final assay condition are 12.5 nM Mat2A, 100 μM ATP and Methionine Substrates and 2% DMSO. After 120 minutes of incubation at RT, the reaction is stopped by the addition of Biomol Green. The absorbance signal is measured at λ=635 nm with a multiplate reader (BMG Pherastar reader or equivalent) after 30 min of equilibration at RT.

Recombinant human Mat2a, sequence (P31153 whole entry): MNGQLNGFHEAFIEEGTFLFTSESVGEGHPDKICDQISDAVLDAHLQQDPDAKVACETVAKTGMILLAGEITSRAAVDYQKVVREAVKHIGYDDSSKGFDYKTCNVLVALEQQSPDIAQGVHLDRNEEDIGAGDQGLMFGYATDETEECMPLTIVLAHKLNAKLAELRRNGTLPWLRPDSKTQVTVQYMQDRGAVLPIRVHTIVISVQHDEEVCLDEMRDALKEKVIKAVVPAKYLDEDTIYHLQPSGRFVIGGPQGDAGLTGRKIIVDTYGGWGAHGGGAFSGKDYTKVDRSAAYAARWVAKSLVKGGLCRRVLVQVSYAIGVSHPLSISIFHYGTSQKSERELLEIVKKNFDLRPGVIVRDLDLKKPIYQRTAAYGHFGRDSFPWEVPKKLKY

IC50 [µM]	SMILES
0.048	Cc1cc(-c2nccc3[nH]nc(C4CC4)c23)ccc1S(C)(=O)=O [Example 1, 3-cyclopropyl-4-(3-methyl-4-(methylsulfonyl)phenyl)-1H-pyrazolo[4,3-c]pyridine]
0.37	COc1cc(-c2nccc3[nH]nc(C4CC4)c23)ccc1S(C)(=O)=O [Example 2, 3-cyclopropyl-4-(3-methoxy-4-(methylsulfonyl)phenyl)-1H-pyrazolo[4,3-c]pyridine]
0.15	CS(=O)(=O)c1ccc(-c2nccc3[nH]nc(C4CC4)c23)cc1Cl [Example 3, 4-(3-chloro-4-(methylsulfonyl)phenyl)-3-cyclopropyl-1H-pyrazolo[4,3-c]pyridine]
0.24	CS(=O)(=O)c1ccc(-c2nccc3[nH]nc(C4CC4)c23)cc1C(F)(F)F [Example 4, 3-cyclopropyl-4-(4-(methylsulfonyl)-3-(trifluoromethyl)phenyl)-1H-pyrazolo[4,3-c]pyridine]
0.17	Cc1cc(-c2nccc3[nH]nc(C4CC4)c23)ccc1S(=O)(=O)N(C)C [Example 5, 4-(3-cyclopropyl-1H-pyrazolo[4,3-c]pyridin-4-yl)-N,N,2-trimethylbenzenesulfonamide]
0.17	COc1ncc2[nH]nc(C3CC3)c2c1-c1ccc(S(C)(=O)=O)cc1 [Example 6, 3-cyclopropyl-5-methoxy-4-(4-methylsulfonylphenyl)-1H-pyrazolo[3,4-c]pyridine]
0.046	Cc1cc(-c2nccc3[nH]nc(C4CC4)c23)ccc1S(=O)(=O)C1CC1 [Example 7, 3-cyclopropyl-4-(4-(cyclopropylsulfonyl)-3-methylphenyl)-1H-pyrazolo[4,3-c]pyridine]
0.37	O=S(=O)(c1ccc(-c2nccc3[nH]nc(C4CC4)c23)cc1Cl)C1CC1 [Example 8, 4-(3-chloro-4-(cyclopropylsulfonyl)phenyl)-3-cyclopropyl-1H-pyrazolo[4,3-c]pyridine]
0.24	CN(C)S(=O)(=O)c1ccc(-c2nccc3[nH]nc(C4CC4)c23)cc1Cl [Example 9, 2-chloro-4-(3-cyclopropyl-1H-pyrazolo[4,3-c]pyridin-4-yl)-N,N-dimethylbenzenesulfonamide]
0.28	CS(=O)(=O)c1ccc(-c2nccc3[nH]nc(C(F)(F)F)c23)cc1 [Example 11, 4-(4-(methylsulfonyl)phenyl)-3-(trifluoromethyl)-1H-pyrazolo[4,3-c]pyridine]
0.22	CS(=O)(=O)c1ccc(-c2nccc3[nH]nc(C4CC4)c23)cc1C(F)F [Example 12, 3-cyclopropyl-4-(3-(difluoromethyl)-4-(methylsulfonyl)phenyl)-1H-pyrazolo[4,3-c]pyridine]
0.11	CS(=O)(=O)c1ccc(-c2nccc3[nH]nc(C4CC4)c23)cc1CF [Example 13, 3-cyclopropyl-4-(3-(fluoromethyl)-4-(methylsulfonyl)phenyl)-1H-pyrazolo[4,3-c]pyridine]
0.099	Cc1cc(-c2nccc3[nH]cc(C4CC4)c23)ccc1S(C)(=O)=O [Example 14, 3-cyclopropyl-4-(3-methyl-4-(methylsulfonyl)phenyl)-1H-pyrrolo[3,2-c]pyridine]
0.27	Cc1cc(-c2nccc3[nH]nc(C4CC4)c23)ccc1S(=O)(=O)C1COC1 [Example 15, 3-cyclopropyl-4-(3-methyl-4-(oxetan-3-ylsulfonyl)phenyl)-1H-pyrazolo[4,3-c]pyridine]
< 0.013	Cc1cc(-c2c(C#N)ncc3[nH]nc(C4CC4)c23)ccc1S(C)(=O)=O [Example 16, 3-cyclopropyl-4-(3-methyl-4-(methylsulfonyl)phenyl)-1H-pyrazolo[3,4-c]pyridine-5-carbonitrile]
< 0.013	Cc1cc(-c2nccc3[nH]nc(C(C)(F)F)c23)ccc1S(C)(=O)=O [Example 17, 3-(1,1-difluoroethyl)-4-(3-methyl-4-(methylsulfonyl)phenyl)-1H-pyrazolo[4,3-c]pyridine]
0.095	Cc1cc(-c2nccc3[nH]nc(C(F)F)c23)ccc1S(C)(=O)=O [Example 18, 3-(difluoromethyl)-4-(3-methyl-4-methylsulfonylphenyl)-1H-pyraxolo[4,3-c]pyridine]
0.042	Cc1cc(-c2nccc3[nH]nc(C(C)C)c23)ccc1S(C)(=O)=O [Example 19, 3-isopropyl-4-(3-methyl-4-(methylsulfonyl)phenyl)-1H-pyrazolo[4,3-c]pyridine]
0.056	Cc1cc(-c2nccc3[nH]nc(C4CC4)c23)c(F)cc1S(C)(=O)=O [Example 21, 3-cyclopropyl-4-(2-fluoro-5-methyl-4-methylsulfonyl-phenyl)-1H-pyrazolo[4,3-c]pyridine]
0.15	Cc1cc(S(C)(=O)=O)c(C)cc1-c1nccc2[nH]nc(C3CC3)c12 [Example 22, 3-cyclopropyl-4-(2,5-dimethyl-4-methylsulfonyl-phenyl)-1H-pyrazolo[4,3-c]pyridine hydrochloride]

IC50 [µM]	SMILES
0.083	Cc1cc(-c2nccc3[nH]nc(C4CC4)c23)ccc1[S+](C)[O-] (stereo not drawn) [Example 23, 3-cyclopropyl-4-(3-methyl-4-methylsulfmyl-phenyl)-1H-pyrazolo[4,3-c]pyridine hydrochloride]
< 0.013	COc1ncc2[nH]nc(C3CC3)c2c1-c1ccc(S(C)(=O)=O)c(C)c1 [Example 24, 3-cyclopropyl-5-methoxy-4-(3-methyl-4-(methylsulfonyl)phenyl)-1H-pyrazolo[3,4-c]pyridine]
0.013	Cc1cc(-c2nccc3[nH]nc(OC(F)F)c23)ccc1S(=O)(=O)C(F)F [Example 25, 3-(difluoromethoxy)-4-[4-(difluoromethylsulfonyl)-3-methyl-phenyl]-1H-pyrazolo[4,3-c]pyridine]
< 0.013	Cc1cc(-c2nccc3[nH]nc(OC(F)F)c23)ccc1S(=O)(=O)C1CC1 [Example 26, 4-(4-cyclopropylsulfonyl-3-methyl-phenyl)-3-(difluoromethoxy)-1H-pyrazolo[4,3-c]pyridine]
< 0.013	CCS(=O)(=O)c1ccc(-c2nccc3[nH]nc(OC(F)F)c23)cc1C [Example 27, 3-(difluoromethoxy)-4-(4-ethylsulfonyl-3-methyl-phenyl)-1H-pyrazolo[4,3-c]pyridine]
0.51	Cc1cc(-c2nccc3[nH]nc(C4COC4)c23)ccc1S(C)(=O)=O [Example 28, 4-(3-methyl-4-methylsulfonyl-phenyl)-3-(oxetan-3-yl)-1H-pyrazolo[4,3-c]pyridine]
0.29	Cc1cc(-c2nccc3[nH]nc(OC(F)F)c23)ccc1S(=O)(=O)CC1CC1 [Example 29, 4-[4-(cyclopropylmethylsulfonyl)-3-methyl-phenyl]-3-(difluoromethoxy)-1H-pyrazolo[4,3-c]pyridine]
0.057	CCCS(=O)(=O)c1ccc(-c2nccc3[nH]nc(OC(F)F)c23)cc1C [Example 30]
0.033	CS(=O)(=O)c1ccc(-c2nccc3[nH]nc(OC(F)F)c23)cc1C(F)F [Example 31]
< 0.013	Cc1cc(-c2nccc3[nH]nc(OC(F)F)c23)ccc1S(=O)(=O)C(C)C [Example 32]
0.029	CNS(=O)(=O)c1ccc(-c2nccc3[nH]nc(OC(F)F)c23)cc1C [Example 33, 4-[3-(difluoromethoxy)-1H-pyrazolo[4,3-c]pyridin-4-yl]-N,2-dimethyl-benzenesulfonamide]
< 0.013	Cc1cc(-c2nc(Cl)cc3[nH]nc(C4CC4)c23)ccc1S(C)(=O)=O [Example 34, 6-chloro-3-cyclopropyl-4-(3-methyl-4-methylsulfonylphenyl)-1H-pyrazolo[4,3-c]pyridine]
0.12	Cc1cc(-c2nccc3[nH]nc(OC(F)F)c23)ccc1S(=O)(=O)C1COC1 [Example 35, 3-(difluoromethoxy)-4-[3-methyl-4-(oxetan-3-ylsulfonyl)phenyl]-1H-pyrazolo[4,3-c]pyridine]
0.051	Cc1cc(-c2nccc3[nH]nc(OC(F)F)c23)ccc1S(=O)(=O)CCO [Example 36, 2-[4-[3-(difluoromethoxy)-1H-pyrazolo[4,3-c]pyridin-4-yl]-2-methyl-phenyl]sulfonylethanol]
0.1	Cc1cc(-c2nccc3[nH]nc(OC(F)F)c23)ccc1S(=O)(=O)C1(C)CC1 [Example 37, 3-(difluoromethoxy)-4-[3-methyl-4-(1-methylcyclopropyl)sulfonyl-phenyl]-1H-pyrazolo[4,3-c]pyridine]
0.021	COCS(=O)(=O)c1ccc(-c2nccc3[nH]nc(OC(F)F)c23)cc1C [Example 38, 3-(difluoromethoxy)-4-[4-(methoxymethylsulfonyl)-3-methyl-phenyl]-1H-pyrazolo[4,3-c]pyridine]
< 0.013	COc1ncc2[nH]nc(C(F)(F)F)c2c1-c1ccc(S(C)(=O)=O)c(C)c1 [Example 39, 5-methoxy-4-(3-methyl-4-(methylsulfonyl)phenyl)-3-(trifluoromethyl)-1H-pyrazolo[3,4-c]pyridine]
0.029	Cc1cc(-c2nccc3[nH]cc(C(F)(F)F)c23)ccc1S(C)(=O)=O [Example 40, 4-(3-methyl-4-(methylsulfonyl)phenyl)-3-(trifluoromethyl)-1H-pyrrolo[3,2-c]pyridine]
0.14	COCc1ncc2[nH]nc(C3CC3)c2c1-c1ccc(S(C)(=O)=O)c(C)c1 [Example 41, 3-cyclopropyl-5-(methoxymethyl)-4-(3-methyl-4-(methylsulfonyl)phenyl)-1H-pyrazolo[3,4-c]pyridine]
